Test results published in ChEMBL document CHEMBL1201862, “PubChem BioAssay data set” (2004).
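Protocol summary: plate cells (96-well), add compound at 5 concentrations, incubate 48 h, interpolate endpoints linearly. Here, GI50 denotes the concentration required for 50% inhibition of growth.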 Active and inactive are the calls of the source. No stated cut-off is given here; in the data, active = GI50 up to about 1.1 µM and inactive = higher.

Columns and labels:
Assay in all cases: NCI anticancer screen, dose series, 48 h
SK-MEL-5 = system: SK-MEL-5
HOP-62 = system: HOP-62
OVCAR-5 = system: OVCAR-5
MOLT-4 = system: MOLT-4
PC-3 = system: PC-3
HCT-15 = system: HCT-15
IGROV-1 = system: IGROV-1
RPMI-8226 = system: RPMI-8226
LOX IMVI = system: LOX IMVI
A498 = system: A498
TK-10 = system: TK-10
Malme-3M = system: Malme-3M
BT-549 = system: BT-549
SW-620 = system: SW-620
NCI/ADR-RES = system: NCI/ADR-RES
CCRF-CEM = system: CCRF-CEM
A549 = system: A549
EKVX = system: EKVX
OVCAR-8 = system: OVCAR-8

| SMILES | GI50 (SK-MEL-5) | GI50 (HOP-62) | GI50 (OVCAR-5) | GI50 (MOLT-4) | GI50 (PC-3) | GI50 (HCT-15) [µM] | GI50 (IGROV-1) | GI50 (RPMI-8226) | GI50 (LOX IMVI) | GI50 (A498) | GI50 (TK-10) | GI50 (Malme-3M) | GI50 (BT-549) | GI50 (SW-620) | GI50 (NCI/ADR-RES) | GI50 (CCRF-CEM) | GI50 (A549) | GI50 (EKVX) | GI50 (OVCAR-8) |
| --- | --- | --- | --- | --- | --- | --- | --- | --- | --- | --- | --- | --- | --- | --- | --- | --- | --- | --- | --- |
| COc1c2ccoc2cc2oc(=O)ccc12 [BERGAPTEN] | > 100 µM (inactive) | > 100 µM (inactive) | > 100 µM (inactive) | > 100 µM (inactive) | > 100 µM (inactive) | > 100 | > 100 µM (inactive) | > 100 µM (inactive) | > 100 µM (inactive) | > 100 µM (inactive) | > 100 µM (inactive) | > 100 µM (inactive) | 49 µM (inactive) | > 100 µM (inactive) | > 100 µM (inactive) | > 100 µM (inactive) | > 100 µM (inactive) | 18.7 µM (inactive) | > 100 µM (inactive) |
| Cc1cc(N(CCOS(C)(=O)=O)CCOS(C)(=O)=O)ccc1/C=N/c1ccc(-c2csc(-c3ccccc3)n2)c(Cl)c1 | 7.6 µM (inactive) | 6.05 µM (inactive) | 17.3 µM (inactive) | 2.43 µM (inactive) | 14.8 µM (inactive) | 8.04 | 8.2 µM (inactive) | 11.2 µM (inactive) | 6.73 µM (inactive) | 1.6 µM (inactive) | 10.5 µM (inactive) | 11.9 µM (inactive) | 19.2 µM (inactive) | 5.2 µM (inactive) | 13.3 µM (inactive) | 1.1 µM (active) | 1.95 µM (inactive) | 4.47 µM (inactive) | 15.9 µM (inactive) |
| CS(=O)(=O)Nc1ccc2c(c1)N(S(C)(=O)=O)CC2CCl (stereo not given) | > 100 µM (inactive) | > 100 µM (inactive) | > 100 µM (inactive) | > 100 µM (inactive) | > 100 µM (inactive) | > 100 | > 100 µM (inactive) | > 100 µM (inactive) | > 100 µM (inactive) | > 100 µM (inactive) | > 100 µM (inactive) | > 100 µM (inactive) | > 100 µM (inactive) | > 100 µM (inactive) | > 100 µM (inactive) | > 100 µM (inactive) | > 100 µM (inactive) | > 100 µM (inactive) | > 100 µM (inactive) |
| COc1cc2oc(-c3ccc(O)cc3)cc(=O)c2c(OC)c1OC | > 100 µM (inactive) | > 100 µM (inactive) | > 100 µM (inactive) | > 100 µM (inactive) | > 100 µM (inactive) | > 100 | > 100 µM (inactive) | > 100 µM (inactive) | > 100 µM (inactive) | > 100 µM (inactive) | > 100 µM (inactive) | > 100 µM (inactive) | > 100 µM (inactive) | > 100 µM (inactive) | > 100 µM (inactive) | > 100 µM (inactive) | > 100 µM (inactive) | > 100 µM (inactive) | > 100 µM (inactive) |
| CC[C@]12C=CCN3CC[C@@]4(c5cc(Br)c(OC)cc5N(C)[C@H]4[C@@](O)(C(=O)N[C@@H](Cc4ccc(O)cc4)C(=O)OC)[C@@H]1O)[C@@H]32 | 17.6 µM (inactive) | 46.5 µM (inactive) | 45.5 µM (inactive) | 14.2 µM (inactive) | 39 µM (inactive) | 23.3 | 19.5 µM (inactive) | 15.6 µM (inactive) | 14.8 µM (inactive) | 18.1 µM (inactive) | 22.6 µM (inactive) | 14.1 µM (inactive) | 20.7 µM (inactive) | 32.9 µM (inactive) | 20.7 µM (inactive) | 21.6 µM (inactive) | 25.7 µM (inactive) | 29.2 µM (inactive) | 24.9 µM (inactive) |
| CC(C)CC(N)C(=O)O (stereo not given) | > 100 µM (inactive) | > 100 µM (inactive) |  | > 100 µM (inactive) | > 100 µM (inactive) | > 100 | > 100 µM (inactive) | > 100 µM (inactive) | > 100 µM (inactive) | > 100 µM (inactive) | > 100 µM (inactive) | > 100 µM (inactive) | > 100 µM (inactive) | > 100 µM (inactive) | > 100 µM (inactive) | > 100 µM (inactive) | > 100 µM (inactive) |  | > 100 µM (inactive) |
| COc1ccc(/C=C2\CCC(C)C3=C(c4ccc(OC)c(OC)c4)C(C#N)=C(N)OC32)cc1OC (stereo not given) | 2.01 µM (inactive) |  | 2.75 µM (inactive) | 2.55 µM (inactive) | 3.13 µM (inactive) | 3.33 | 2.39 µM (inactive) | 2.04 µM (inactive) | 3.16 µM (inactive) | 3.76 µM (inactive) | 4.04 µM (inactive) | 2.48 µM (inactive) | 3.51 µM (inactive) | 4.29 µM (inactive) | 2.65 µM (inactive) | 2.28 µM (inactive) |  | 1.86 µM (inactive) | 4.01 µM (inactive) |
| O=c1oc2ccccc2c(-c2ccc(O)cc2)c1Oc1ccc(Cl)cc1 | 18.3 µM (inactive) |  | 31.8 µM (inactive) |  | 25.8 µM (inactive) | 30.1 | 20.3 µM (inactive) | 20.7 µM (inactive) | 24.7 µM (inactive) | 26.6 µM (inactive) | 20.7 µM (inactive) | 18.2 µM (inactive) | 23.2 µM (inactive) | 30.5 µM (inactive) | 24.5 µM (inactive) | 21.4 µM (inactive) | 19.3 µM (inactive) | 16.8 µM (inactive) | 25.8 µM (inactive) |
| Cc1ccccc1OC(C)C(=O)NN1C(=O)CC(=O)NC1=S (stereo not given) | > 100 µM (inactive) | > 100 µM (inactive) | > 100 µM (inactive) | 94.8 µM (inactive) | > 100 µM (inactive) | > 100 | > 100 µM (inactive) | > 100 µM (inactive) | > 100 µM (inactive) | > 100 µM (inactive) | > 100 µM (inactive) | > 100 µM (inactive) | > 100 µM (inactive) | > 100 µM (inactive) | > 100 µM (inactive) |  | 68.9 µM (inactive) | > 100 µM (inactive) | > 100 µM (inactive) |
| COc1cc(-c2ccccc2N)c2cccnc2c1OC | 13 µM (inactive) | 5.26 µM (inactive) |  | 1.44 µM (inactive) | 8.55 µM (inactive) | 3.58 | 2.97 µM (inactive) | 3.4 µM (inactive) | 3.4 µM (inactive) | 14.1 µM (inactive) | 10.1 µM (inactive) | 14.9 µM (inactive) | 9.14 µM (inactive) | 2.92 µM (inactive) | 10.4 µM (inactive) | 3.56 µM (inactive) | 3.69 µM (inactive) | 5.06 µM (inactive) |  |
| O=C(CSc1nc2ccc(I)cc2c(=O)n1Cc1ccccc1)Nc1ccccc1 | 32.1 µM (inactive) | 5.7 µM (inactive) | 30.6 µM (inactive) | > 100 µM (inactive) | 11.4 µM (inactive) | 41.5 | 25.2 µM (inactive) | 88.3 µM (inactive) | 50.7 µM (inactive) | 15.6 µM (inactive) |  | 6.15 µM (inactive) | 20 µM (inactive) | 92.7 µM (inactive) | 13.8 µM (inactive) | > 100 µM (inactive) | 26.6 µM (inactive) | 3.55 µM (inactive) | 6.75 µM (inactive) |
| CNC(=O)CCC(NC(C)=O)C(=O)NC(Cc1ccc(NC(=O)CCCCC(C)=O)cc1)C(=O)NC(CCC(=O)NC)C(=O)NC (stereo not given) | > 100 µM (inactive) | > 100 µM (inactive) | > 100 µM (inactive) | > 100 µM (inactive) | > 100 µM (inactive) | > 100 | > 100 µM (inactive) | > 100 µM (inactive) | > 100 µM (inactive) | > 100 µM (inactive) | > 100 µM (inactive) | > 100 µM (inactive) | > 100 µM (inactive) | > 100 µM (inactive) | > 100 µM (inactive) |  | > 100 µM (inactive) | > 100 µM (inactive) | > 100 µM (inactive) |
| Nc1nccc(NCC2(CO)CC(OCc3ccccc3)C2)n1 (stereo not given) | 35.8 µM (inactive) | > 100 µM (inactive) | > 100 µM (inactive) | > 100 µM (inactive) | > 100 µM (inactive) | > 100 | > 100 µM (inactive) | > 100 µM (inactive) | > 100 µM (inactive) | > 100 µM (inactive) |  | > 100 µM (inactive) | > 100 µM (inactive) | > 100 µM (inactive) | > 100 µM (inactive) | > 100 µM (inactive) | > 100 µM (inactive) | 77.4 µM (inactive) | > 100 µM (inactive) |
| C/C(=N\NC(=[Se])N1CCN(c2ccccn2)CC1)c1ccccn1 | 0.0475 µM (active) | 0.0728 µM (active) | 5.97 µM (inactive) | 2.58 µM (inactive) | 0.01 µM (active) | 0.01 | 0.01 µM (active) | 0.036 µM (active) | 0.0268 µM (active) | 4.51 µM (inactive) | 7.38 µM (inactive) | 0.297 µM (active) | 4.15 µM (inactive) | 0.01 µM (active) | 0.0023 µM (active) |  | 3.72 µM (inactive) |  | 0.01 µM (active) |
| COc1ccc2c3c([nH]c2c1)[C@H](C=C(C)C)N1C(=O)[C@@H]2CCCN2C(=O)[C@@H]1C3 [FUMITREMORGIN] |  | 47 µM (inactive) | > 100 µM (inactive) | > 100 µM (inactive) | > 100 µM (inactive) | > 100 | > 100 µM (inactive) | > 100 µM (inactive) | > 100 µM (inactive) | > 100 µM (inactive) | 29.1 µM (inactive) | 78.3 µM (inactive) | > 100 µM (inactive) | > 100 µM (inactive) | > 100 µM (inactive) | > 100 µM (inactive) | > 100 µM (inactive) | > 100 µM (inactive) | 64.4 µM (inactive) |
